Legend:
[1] = system: SK-MEL-3; assay: Inhibition of human cancer cell line SK-MEL-3 (Melanoma); assay type: cell-based
From the text: (§1) Current research in the control of cancer in the United States is coordinated by the National Cancer Institute (NCI). To determine whether a substance has anti-cancer properties, the NCI has established a systematic protocol. […] The protocol, and the established statistical means for analyzing the results obtained by the standardized testing are fully described in the literature. See: Boyd, Dr. Michael R., Principles & Practice of Oncology, PPO Updates, Volume 3, Number 10, October 1989, for an in depth description of the testing protocol; and Paull, K. D., "Display and Analysis of Patterns of Differential Activity of Drugs Against Human Tumor Cell Lines; Development of Mean Graph and COMPARE Algorithm", Journal of the National Cancer Institute Reports, Vol. 81, No. 14, Page 1088, Jul. 14, 1989 for a description of the methods of statistical analysis. Both of these references are incorporated herein by this reference thereto.
(§2) The dipeptides (1a-1e) were in turn prepared by coupling dolaproine (5) with the respective amino acids. All compounds were characterized (physical and spectroscopic data) and tested against the murine lymphocytic P388 leukemia cell line as well as six major human cancer cell lines.

[2] = system: SF-295; assay: Inhibition of human cancer cell line SF-295 (CNS); assay type: cell-based
From the text: as §1, §2

[3] = system: KM20L2; assay: Inhibition of human cancer cell line KM20L2 (Colon); assay type: cell-based
From the text: as §1, §2

[4] = system: A498; assay: Inhibition of human cancer cell line A498 (Renal); assay type: cell-based
From the text: as §1, §2

[5] = system: murine lymphocytic P388 leukemia cell line; assay: Inhibition of murine lymphocytic P388 leukemia cell line; assay type: cell-based; conditions: MOUSE LEUKEMIA P388
From the text: as §2

[6] = system: OVCAR-3; assay: Inhibition of human cancer cell line OVCAR-3 (Ovarian); assay type: cell-based
From the text: as §1, §2

[7] = system: NCI-H460; assay: Inhibition of human cancer cell line NCI-H460 (Lung-NSC); assay type: cell-based
From the text: as §1, §2

[8] = system: P388 Lymphocytic Leukemia; assay: Dolastatin 10 in murine in vivo system, P388 Lymphocytic Leukemia
From the text: (§3) Presently Dolastatin 10, a linear pentapeptide represents the most important member and is a potentially useful antineoplastic agent.

[9] = system: OVCAR-3 Human Ovary Xenograph; assay: Dolastatin 10 in murine in vivo system, OVCAR-3 Human Ovary Xenograph Nude Mouse; conditions: 40 μg/kg
From the text: The synthesis of potentially useful peptides presents one of the most essential and promising approaches to new types of anticancer and immunosuppressant drugs. The Dolastatins, an unprecedented series of linear and cyclic antineoplastic and/or cytostatic peptides isolated from Indian Ocean sea hare Dolabella auricularia represent excellent leads for synthetic modification. The very productive sea hare Dolabella auricularia has produced a number of structurally distinct peptides with excellent antineoplastic activity. Presently Dolastatin 10, a linear pentapeptide represents the most important member and is a potentially useful antineoplastic agent. […] Recently the total synthesis and absolute configuration of this structurally unique and biologically active peptide was reported.

[10] = system: Human Mammary Xenograph; assay: Dolastatin 10 in murine in vivo system, Human Mammary Xenograph Nude Mouse
From the text: as §3

[11] = system: LOX Human Melanoma Xenograph; assay: Dolastatin 10 in murine in vivo system, LOX Human Melanoma Xenograph (Nude Mouse)
From the text: as §3

Substance	GI-50 [1] [µg/mL]	LC-50 [1] [µg/mL]	TGI [1] [ng/mL]	GI-50 [2] [µg/mL]	LC-50 [2] [µg/mL]	TGI [2] [ng/mL]	GI-50 [3] [µg/mL]	LC-50 [3] [µg/mL]	TGI [3] [ng/mL]	GI-50 [4] [µg/mL]	LC-50 [4] [µg/mL]	TGI [4] [ng/mL]	ED50 [5] [ng/mL]	GI-50 [6] [µg/mL]	LC-50 [6] [µg/mL]	TGI [6] [ng/mL]	GI-50 [7] [µg/mL]	LC-50 [7] [µg/mL]	TGI [7] [ng/mL]	also measured
Dov-Val-Dil-Dap-Phe-NH2 [pentapeptide 3b]	0.00017	> 1	12	0.00085	> 1	49	< 0.0001	0.083	19	0.00097	> 1	6.2	19.5	0.0076	0.066	3.7	0.000095	> 1	11	–
Dolastatin 10	–	–	–	–	–	–	–	–	–	–	–	–	–	–	–	–	–	–	–	T/C ([8]; 3.25 μg/kg): 146; T/C ([8]; 6.5 μg/kg): 155; T/C [9]: 300; T/C ([10]; 6.25 μg/kg): 178; T/C ([10]; 13 μg/kg): 137; T/C ([11]; 3.25 μg/kg): 170; T/C ([11]; 6.5 μg/kg): 206; T/C ([11]; 13 μg/kg): 301; T/C ([11]; 26 μg/kg): 301
Dov-Val-Dil-Dap-Phe-OCH3 [pentapeptide 3a]	< 0.0001	> 1	0.68	< 0.0001	> 1	0.17	< 0.0001	> 1	1.1	< 0.0001	> 1	2.9	66.7	< 0.0001	> 1	1.1	< 0.0001	> 1	11	–
Dov-Val-Dil-Dap-Met-OCH3 [pentapeptide 3e]	< 0.0001	> 1	> 1000	< 0.0001	> 1	56	< 0.0001	> 1	0.15	< 0.0001	> 1	> 1000	0.389	< 0.0001	> 1	< 0.1	< 0.0001	> 1	130	–
Dov-Val-Dil-Dap-Pro-OCH3 [pentapeptide 3c]	< 0.0001	> 1	< 0.1	< 0.0001	> 1	2.4	< 0.0001	> 1	2.2	< 0.0001	> 1	5.4	8.8	< 0.0001	> 1	< 0.1	< 0.0001	> 1	1.3	–
Dov-Val-Dil-Dap-Ile-OCH3 [pentapeptide 3d]	< 0.0001	> 1	< 0.1	< 0.0001	> 1	170	< 0.0001	> 1	< 0.1	< 0.0001	> 1	< 0.1	0.441	< 0.0001	0.043	< 0.1	< 0.0001	> 1	0.88	–
